Experiments:
[1] = system: IgE-mediated auricle edema; assay: Auricle edema in experimental atopic dermatitis model (anti-DNP IgE sensitization, DNFB elicitation); type: in vivo, Balb/c mice; details: Compound Nos. 8 and 10 60 mg/kg s.c., prednisolone 10 mg/kg i.p.
Experimental: Intravenous injection of an anti-2,4-dinitrophenol (DNP) antibody (anti-DNP Ab, monoclonal IgE Ab; its antibody titer was 1 : 512 to 1 : 1024 by a rat heterologous passive cutaneous anaphylaxis reaction using a Wister rat) into a tail vein of female Balb/c mice (7-week old, body weight: 17 to 20 g, purchased from JAPAN SLC, Inc.) at a dose of […] per animal raised passive sensitization. Twenty four hours post-sensitization, 0.1% 2,4-dinitrofluorobenzene (DNFB; Nacalai Tesque, Inc.) in ethanol was painted onto both sides of a pair of mouse auricles at a dose of 10 µL per each side for elicitation.
Fresh unsensitized mice were painted with 0.1% DNFB in ethanol onto their ear in the same manner as aforementioned and served as a control group. Not only immediately prior to elicitation but also 1 hour, 5 hours, daily between Days 1 and 14, and on Day 16 post-elicitation, ear thickness was measured using a dial thickness gauge (Peacock Co.). Each degree of auricle edemas was calculated: Auricular Edema (µm)=(Ear Thickness Post-Elicitation, µm) - (Ear Thickness immediately prior to Elicitation, µm) [formula]
Balb/c mice were passively sensitized with anti-DNP IgE Ab in the same manner as in Example 1. Twenty four hours later, 0.1% DNFB in ethanol was painted onto both sides of a pair of mouse auricles at a dose of 10 µL per each side for elicitation.
Immediately prior to elicitation, 1 hour and on Day 1 post-elicitation, auricle thickness was measured in the same manner as in Example 1. Each therapeutic efficacy is recorded as a percent inhibition wherein the "auricle edema (untreated group)" is used as a control. Auricle Edema Inhibition (%) = [ 1 -(Auricle Edema (Treated Group))/(Auricle Edema (Untreated Group))] × 100 (%) [formula]
(§1) Mice were sensitized with anti-DNP IgE Ab and then elicited by painting 0.1% DNFB in ethanol onto both sides of a pair of mouse auricles at a dose of 10 µL per each side 24 hours post-sensitization in the same manner as in Example 1. […] Immediately prior to elicitation, and on Day 7 post-elicitation, auricle thickness was similarly measured. Each therapeutic efficacy is recorded as a percent inhibition wherein the auricle edema in the untreated group is used as a control.
as §1, with “(untreated group)” for “in the untreated group”
Mice were sensitized with anti-DNP IgE Ab and then elicited by painting 0.1% DNFB in ethanol onto both sides of a pair of mouse auricles at a dose of 10 µL per each side 24 hours post-sensitization in the same manner as in Example 1. […] Immediately prior to elicitation, at 1 and 4 hours and on Days 1, 3 and 7 post-elicitation, auricle thickness was similarly measured. From each auricle edema (µm) based on the auricle thickness immediately prior to elicitation, especially a prophylactically therapeutic efficacy of the test compound was evaluated.
Mice were sensitized with anti-DNP IgE Ab and then elicited by painting 0.1% DNFB in ethanol onto both sides of a pair of mouse auricles at a dose of 10 µL per each side 24 hours post-sensitization in the same manner as in Example 1. A solution of a test metalloproteinase inhibitor (Compound No. 8; 50 µg/ear/dose, twice a day) in ethanol was painted onto both sides of a pair of the mouse auricles 1 hour pre-elicitation, 0.25, 3, 4, 5 and 6 days post-elicitation (5 animals per group). Immediately prior to elicitation, at 0.5, 1 and 4 hours and on Days 1, 3 and 7 post-elicitation, auricle thickness was similarly measured. Each amount of auricle edemas was calculated (average± standard deviation). […]

[2] = Mouse body weight gain (side-effect index); type: in vivo, mice; details: average ± standard deviation; once a day Days 0-5; Compound No. 8 or 10 60 mg/kg s.c., prednisolone 10 mg/kg i.p.
Experimental: Next the mice were measured for their body weight.

[3] = Body weight gain in sensitized mice (experimental atopic dermatitis model); type: in vivo; details: painted on auricles twice a day; Compound No. 8 50 µg/ear/dose, prednisolone 5 µg/ear/dose; Days 1, 4 and 7; versus solvent control (ethanol)
Experimental: Experimental atopic dermatitis model mice sensitized in the same manner as in Example 1 were examined for influence on body weight gains.
A solution of a test metalloproteinase inhibitor (Compound No. 8; 50 µg/ear/dose, twice a day) in ethanol or a solution of prednisolone (5 µg/ear/dose, twice a day) in ethanol was administered to mice (5 animals per group) by painting onto both sides of a pair of the auricles, not only one hour prior to elicitation but also 0.25, 3, 4, 5 and 6 days post-elicitation. Each mouse was measured for its body weight not only immediately before the start in painting but also on Days 1, 4 and 7 after the start in painting. Each gain in body weight was calculated and considered to indicate an effect on body weight changes affected by said treatments.

[4] = system: Experimental Bronchial Asthma Model; assay: Experimental bronchial asthma model (ovalbumin-sensitized, airway resistance and asthmatic death); type: in vivo, Guinea pigs; details: for % Survival: asthmatic death within several minutes after elicitation
Experimental: Guinea pigs (female, Std:Hartley, 3 weeks old, 200 to 250 g) were individually housed in a plastic chamber (width, 200 mm; depth, 300 mm; height, 167 mm). Aqueous ovalbumin (10 mg/mL) was administered to the guinea pigs once a day for sensitization by 10 min. inhalation with a nebulizer (5B, Nippon Shoji K.K.: flow rate, 6 L/min.) at a dose of 10 mg/mL during 8 cosecutive days. On Day 7 after the final sensitization, the guinea pigs were housed in a plastic chamber and inhaled using a nebulizer with a solution of ovalbumin (10 mg/mL) in physiological saline for 1 min. for elicitation (Matsumoto, T., et al., The Journal of Pharmacology and Experimental Therapeutics, 269: 1236-1244, 1994). The number of animals employed in the experiment was set to the extent there are at least 6 as individuals escaping asthmatic death. A solution of a test metalloproteinase inhibitor (Compound No. 8, 15 mg/kg) in water for injection was administered subcutaneously twice, i.e., 24 hours and 2 hours prior to elicitation. Similarly, the solvent alone was also administered to a negative control group. A suspension of prednisolone (10 mg/kg) in 0.5% aqueous methyl cellulose was administered orally twice, i.e., 24 hours and 2 hours prior to elicitation. Similarly, the solvent alone was also administered to another control group.
The evaluation for efficacies was conducted in terms of airway resistance. For this purpose, an apparatus dedicated to the measurement of airway resistance (K.K. Medical Agent) was employed. Measurement includes setting a guinea pig in a test chamber under a not-anesthetized condition, applying sinusoidal pressure waves of 30 Hz components to a part below the neck of the animal from the back side of the chamber, measuring respiratory waves of 30 Hz components leaking through the mouth (volume of 30 Hz air flow passing through the respiratory tract) in front of the neck, and calculating airway resistance mechanically. Measurement was carried out immediately prior to the first drug treatment (24 hours before elicitation), just prior to elicitation, 10 minutes, 1, 2, 4, 6, and 8 hours post-elicitation.
It was visually observed by a person carrying out said test in terms of the appearance of cyanosis or suffocative death (asthmatic death) due to respiratory obstruction.
Guinea pigs were sensitized with ovalbumin and asthma was induced on Day 7 after final sensitization in the same manner as in Example 18. The number of animals employed in the experiment was set to the extent there are at least 6 as individuals escaping asthmatic death (8 to 11 animals/group). In the same manner as in Example 18, the animals were measured for airway resistance mechanically and each percent change (%) in airway resistance was calculated (each value just prior to elicitation was set as 100%). Each percent amelioration in airway resistance was calculated from the percent changes in airway resistance according to the following formula: Amelioration in Airway Resistance (%) = 1 -[((Percent Change in Airway Resistance after Drug-Administration)-(Value just prior to Challenge (100)))/((Percent Change in Airway Resistance after Solvent -Administration)-(Value just prior to Challenge (100)))]× 100 [formula]
A solution of a test metalloproteinase inhibitor (Compound No. 22: 15 mg/kg or 30 mg/kg) in water for injection or the solvent alone as a negative control was administered to each animal subcutaneously twice, i.e., 24 hours and 2 hours prior to elicitation.

[5] = Compound No. 22 15 mg/kg s.c., prednisolone 10 mg/kg orally
[6] = suffocative death due to cyanosis just after elicitation, Compound No. 8 15 mg/kg s.c., prednisolone 10 mg/kg orally, 24 and 2 hours prior to elicitation

SMILES | % Inhibition IPR ([1]; auricle edema 1 hour post-elicitation, treatment 24 & 2 hours prior to DNFB-elicitation) | % Inhibition LPR ([1]; auricle edema Day 1 post-elicitation, treatment 24 & 2 hours prior to DNFB-elicitation) | % Inhibition vLPR ([1]; auricle edema Day 7 post-elicitation, daily from 3 to 6 days after DNFB-elicitation) | Body Weight Gain, Day 5 [2] | Body Weight Gain, Day 7 [2] | Body Weight Gain, Day 10 [2] | gain in body weight (FIG. 9) [3] | % Survival [4, 5] | % Mortality [4, 6] | (Dead Animals)/(Tested Animals) [4, 6] | % Amelioration in Airway Resistance, 1 Hour ([4]; 1 hour after elicitation, Compound No. 22 15 mg/kg s.c., prednisolone 10 mg/kg orally) | % Amelioration in Airway Resistance, 6 Hours ([4]; 6 hours after elicitation, Compound No. 22 15 mg/kg s.c., prednisolone 10 mg/kg orally) | % Amelioration in Airway Resistance, Immediately after Elicitation ([4]; Compound No. 22 15 mg/kg s.c., prednisolone 10 mg/kg orally, 24 and 2 hours prior to elicitation) | cyanosis ([4]; after elicitation, s.c. administration)
CC(=O)O.CNC(=O)[C@H](Cc1ccc(CNC(C)=N)cc1)NC(=O)[C@H](CC(C)C)C(CCCc1ccccc1)C(=O)NO (single isomer, unassigned) [Compound No. 10, N-[4-(N-hydroxyamino)-2(R)-isobutyl-3(R or S)-(3-phenyltrimethylene)succinyl]-L-4'-acetimidoyliminomethylenephenylalanine-N-methylamide 1 acetate] | 38.2% | 39.2% | 44.7% | 1.08± 0.39 | 1.62± 0.26 | 1.40± 0.30 | – | – | – | – | – | – | – | –
C[C@]12C=CC(=O)C=C1CC[C@@H]1[C@@H]2[C@@H](O)C[C@@]2(C)[C@H]1CC[C@]2(O)C(=O)CO [Prednisolone, prednisolone, reference compound] | – | – | – | 0.00± 0.26 | 0.03± 0.57 | 0.97± 0.47 | below that in the solvent control group | 75.0% | 22.2% | 2/9 | – | – | – | –
CC(=O)O.CNC(=O)[C@H](Cc1ccc(NC(=N)N)cc1)NC(=O)[C@@H](CC(=O)NO)CC(C)C [Compound No. 22, N-[4-(N-hydroxyamino)-2(R)-isobutylsuccinyl]-L-4'-guanidophenylalanine-N-methylamide 1 acetate] | – | – | – | – | – | – | – | 88.9% | – | – | 56.4% | 102.2% | 12.3% | moderation in cyanosis is also observed
